# Experimental data: US20250199015A1, “CYCLIN-DEPENDENT KINASE 2 INHIBITORS FOR MEDICAL TREATMENT” (INCYCLIX BIO, LLC, priority 2022, published 2025)
# Columns and labels:
# Format in all cases: cell-based, human
# COV318 cells = experiment: CellTiter Glo cell proliferation assay; settings: CCNE1 amplified, six days
# Procedure: Plates were returned to the incubator for six additional days. On day six post dosing, plates were removed and treated with CellTiter Glo reagent following manufacturer's specifications. Plates were incubated 45 minutes at room temperature and run on Biotek luminometer with 1 sec/well detection. Results were converted to Microsoft Excel and transferred to Graphpad Prism for analysis. […] These cell types are distinguished by either gained of cyclin E1 expression or activation (Kuramochi) or intrinsic amplification of cyclin E1 (OVCAR-3, COV318).
# [1] = tested on: Hs68 normal foreskin fibroblast cells; experiment: Cell cycle by EdU flow cytometry, normal fibroblasts; settings: 300 nM, 24 hours, alone or in combination with cisplatin
# Procedure: The Hs68 normal foreskin fibroblast cell line was grown in DMEM-high glucose/1× Glutamax/10% fetal bovine serum and was plated at 30,000 cells/well in Corning 6 well tissue culture treated plates. Cells were incubated at 37° C. for 24 hours prior to addition of the first treatment. […] Cells were treated to 24 hours post-initial treatment, with 10 μM EdU added at hour 23. Cells were collected and fixed in 1% paraformaldehyde. Cells were incubated with pacific blue azide dye as described by Thermo Scientific. Cells were then incubated with antibody against γ-H2AX at a ratio of 1:50 before incubation with FarRed dye and RNase. Cells were analyzed on a BD Celesta and data compiled using FloJo and GraphPad. Cell cycle profiles were evaluated following treatment via Flow Cytometry using FlowJo (v10.0) software.
# [2] = tested on: pRb (T821, 807/811), CCNE1 in OVCAR-3 cells; experiment: Western blot pRb and cell cycle proteins
# Procedure: Cells were plated at 300,000 cells/well in Corning 6 cm tissue culture treated plates. […] Cells were collected by washing each well twice with cold PBS, then scraping cells in the presence of 75 μL cold RIPA with protease and phosphatase inhibitors. Lysates were clarified by centrifugation at 12,000×g for 15 min at 4° C. and supernatants transferred to clean tubes. A BCA assay was performed to determine the protein concentration of each lysate. A total of 25 μg of protein was mixed with sample buffer and reducing agent before being run on a 4-12% SDS-PAGE. Protein was transferred to a nitrocellulose membrane and blocked with LI-COR blocking buffer for 1 hour. Membranes were incubated overnight in primary antibody at 4° C. Following 3 washes with TBS-T, membranes were incubated for 60 minutes in LI-COR secondary antibodies. Following 3 washes in TBS-T, and one TBS wash, membranes were scanned using a LI-COR OdysseyCLx. Image studio was used for image analysis.
# The OVCAR-3 human ovarian carcinoma cell line was grown in RPMI-1640/1× Glutamax/1× Insulin/10% fetal bovine serum and was plated at 300,000 cells/well in Corning 6 well tissue culture treated plates. Cells were incubated at 37° C. for 24 hours prior to addition of 2 replicates of 0.1% DMSO control and 1 replicate for each treatment. […] Cells were collected by washing each well twice with cold PBS, then scraping cells in the presence of 150 μL cold RIPA with protease and phosphatase inhibitors. Lysates were clarified by centrifugation at 14,000×g for 10 min at 4° C. and supernatants were transferred to clean tubes. A BCA assay was performed to determine the protein concentration of each lysate. A total of 30 μg of protein was mixed with sample buffer and reducing agent before being run on a 4-12% SDS-PAGE. Protein was transferred to a nitrocellulose membrane and blocked with LI-COR blocking buffer for 1 hour. Membranes were incubated overnight in primary antibody at 4° C. Following 3 washes with TBS-T, membranes were incubated for 45 minutes in LI-COR secondary antibodies. […]
# [3] = tested on: CCNE1, CCNE2, DNA damage markers in H526 cells; experiment: Western blot cell cycle and DNA damage proteins; settings: 24 hours
# Procedure: (§1) The H69 and H526 human lung carcinoma cell lines were grown in RPMI-1640/1× Glutamax/10% fetal bovine serum while the Hs68 Normal foreskin fibroblast cell line was grown in DMEM-high glucose/1× Glutamax/10% fetal bovine serum. […] Cells were collected by washing each well twice with cold PBS, then scraping cells in the presence of 150 μL cold RIPA with protease and phosphatase inhibitors. Lysates were clarified by centrifugation at 14,000×g for 10 min at 4° C. and supernatants transferred to clean tubes. A BCA assay was performed to determine the protein concentration of each lysate. A total of 30 μg of protein was mixed with sample buffer and reducing agent before being run on a 4-12% SDS-PAGE. Protein was transferred to a nitrocellulose membrane and blocked with LI-COR blocking buffer for 1 hour. Membranes were incubated overnight in primary antibody at 4° C. Following 3 washes with TBS-T, membranes were incubated for 45 minutes in LI-COR secondary antibodies. Following 2 washes in TBS-T, and one TBS wash, membranes were scanned using a LI-COR OdysseyCLx. Image studio was used for image analysis.
# [4] = tested on: CCNE1, CCNE2, DNA damage markers in H69 cells; experiment: Western blot cell cycle and DNA damage proteins; settings: 24 hours
# Procedure: as §1
smiles,measurement,setting,value
NS(=O)(=O)c1ccc(Nc2ncc3cc4n(c3n2)C2(CCCCC2)C(=O)NN4)cc1 [Compound I],cell viability compared with palbociclib,COV318 cells,potently decreases cell viability
same,cell cycle changes,[1],Few cell cycle changes were observed
same,pRb levels over time,"[2]; 300 nM, 1-24 hours",time-dependent decrease in pRb levels
same,cyclin E1 (CCNE1) levels,"[2]; 30-1000 nM, 24 hours",levels were increased
same,pRb levels,"[2]; 30-1000 nM, 24 hours",dose-dependent decrease in pRb levels
same,DNA damage markers,[3],No overt DNA damage marker changes
same,"cyclin E (CCNE1, CCNE2) levels",[3],"increase of cyclin E (CCNE1, CCNE2) amplification"
same,DNA damage markers,[4],No overt DNA damage marker changes
same,"cyclin E (CCNE1, CCNE2) levels",[4],"increase of cyclin E (CCNE1, CCNE2) amplification"
